Reference: patent EP1380292A1, “Tiaprid for the treatment of depressions” (Mewicon med. wiss. Beratung GmbH, priority 2002, dated 2004)

How the values were obtained:
[1] = test system: frontalem Kortex, Hippokampus, Striatum und Formatio Reticularis abgeleiteten Feldpotentiale; assay: Tele-Stereo-EEG: changes of EEG frequencies in freely moving rats after i.p. administration; assay type: in vivo, Fischer-344 Ratten; settings: for Veränderungen der EEG-Frequenzen: i.p., 40 bis 100 mg/kg, rat, significant at least at P < 5 %-Level
Method: Testverfahren 1 ((Tele-Stereo-EEG)
Die Veränderungen der EEG-Frequenzen nach Gabe von Salzlösung (Kontrolle) bzw. einer Dosis von Tiaprid (40 bis 100 mg/kg Körpergewicht) wurden bestimmt.
Der Stecker diente der Aufnahme eines 4-Kanal-Senders zur telemetrischen Übertragung der aus frontalem Kortex, Hippokampus, Striatum und Formatio Reticularis abgeleiteten Feldpotentiale. Die Signale wurden auf einem Computer System (Software "EEG-Analyse", Betriebsystem OS Science, Laborrechner "LabTeam" der Firma MediSyst, Linden DE) in Echtzeit einer Fast-Fourier-Transformation unterworfen und die Leistungsdichtespektren jeweils über 15 bis 60 Minuten gemittelt. Die Unterteilung der Spektren in 6 verschiedene Frequenzbereiche erlaubte die Erfassung pharmakospezifischer Veränderungen in Bezug auf die jeweils vor der Applikation gemessenen Vorwerte innerhalb dieser Frequenzbänder.
Zum Applikationsprotokoll der Substanzen: Die Substanzen wurden i.p. 45 Minuten nach Beginn der Messungen (Vorwert) injiziert. Fünf Minuten später wurden die Messungen wieder gestartet, mindestens über die nächsten 5 Stunden kontinuierlich analysiert und in 15-minütigen Perioden zusammengefasst. Die Testsubstanz wurde in einer Dosierung von 40 bis 100 mg/kg appliziert. Die experimentelle Serie wurde mit der Injektion von Salzlösung (Kontrolle) begonnen.
Die beobachteten Frequenzänderungen wurden mittels einer Diskriminanzanalyse mit den Ergebnissen mit herkömmlichen antidepressiv wirkenden Arzneimitteln sowie Arzneimitteln für andere Indikationen verglichen. Es wurden folgende Arzneimittel verwendet: 100 mg/kg Tiaprid (Tiapr), 2 mg/kg Paroxetin (Parox), 10 mg/kg Imipramin (Imip), 10 mg/kg Amitryptilin (Amit), 1 mg/kg Nomifensin (Nomi), 0.5 mg/kg Midazolam (Midaz), 60 mg/kg Phenobarbital (Pheno), 60 mg/kg Meprobamat (Meprob), 0.5 mg/kg Chlorpromazin (Chlorp), 0,25 mg/kg Haloperidol (Halop), 1 mg/kg Prothipendyl (Prothi), 10 mg/kg Thioridazin (Thior), 15 mg/kg Carbamazepin (Carba), 75 mg/kg Valproinsäure (Valpr), 6 mg/kg Phenytoin (Pheny). Des weiteren wurden geprüft: 1,3 Vol.-% Halothan (Haloth), 100 mg/kg Propofol (Propo), 1,0 Vol.-% Isofluran (Isofl), 4,5 Vol.-% Desfluran (Desfl), 1,8 Vol.-% Sevofluran (Sevofl) und 1,7 Vol.-% Enfluran (Enfl). Die Ergebnisse sind in Fig. 2 dargestellt.

[2] = test system: Pyramidenzellen im Hippokampus-Schnittpräparat der Ratte; assay: Long-term potentiation in the hippocampus slice preparation in vitro; design: species or system CD-Ratten
Method: Testmethode 2 (Langzeitpotenzierung im Hippokampus-Schnittpräparat in vitro)
Die Wirkung von Tiaprid auf die Langzeitpotenzierung der Pyramidenzellen im Hippokampus-Schnittpräparat der Ratte wurde bestimmt.
Für die Durchführung dieser Studie wurden 15 erwachsene männliche CD-Ratten verwendet. Die Isolation des Hippokampus erfolgte an äthernarkotisierten und anschließend exsanguinierten Tieren. In Phosphat-gepufferter Salzlösung (NaCl: 124 mM; KCl: 5 mM; CaCl2: 2 mM; MgSO4: 2 mM; NaH2PO4: 1,25 mM; NaHCO3: 26 mM; Glucose: 10 mM; Kontroll-Lösung: künstliche Zerebral-Spinal-Flüssigkeit (ASCF, artificial cerebral spinal fluid); alle von der Firma Roth, Karlsruhe DE) wurde der mittlere Teil des Hippokampus mit Hilfe eines Schnellklebers aufgeblockt und mit einem Vibratom (Rhema Labortechnik) in 400 µm dicke Scheiben geschnitten. Die Aufbewahrung dieses Hippokampusschnittes erfolgte für mindestens 1 Stunde vor Versuchsbeginn (siehe S.J. Schiff, G.G. Somjen "The Effects of Temperature on Synaptic Transmission in Hippocampal Tissue Slices" Brain Research (1985), 345, 279-284) in einer mit Carbogen durchperlten Inkubationskammer.
Das Experiment selbst wurde in einer sog. "Base Unit mit Haas Top" (Firma Medical Systems Corp.) bei 35°C durchgeführt. Der mit Hilfe peristaltischer Pumpen (Infusomat, B. Braun Melsungen AG) superfundierte Hippokampusschnitt lag auf einem Stück Gaze. […]

D2/D3 Dopaminrezeptoren = settings: from the literature (Scatton et al., Eur Psychiatry 2001); cited from earlier work

In the case of CCN(CC)CCNC(=O)c1cc(S(C)(=O)=O)ccc1OC [Tiaprid, N-2-(Diethylaminoethyl)-5-methylsulfonyl-2-methoxybenzamide], the “Muster der EEG-Frequenzänderungen ("Fingerprint", Diskriminanzanalyse)” value ([1]; discriminant analysis against antidepressants and drugs for other indications, 100 mg/kg Tiaprid) is reported as “korrelieren in signifikanter Weise mit den Mustern, die für andere antidepressive Arzneimittel kennzeichnend sind”, the “Veränderungen der EEG-Frequenzen” value ([1]; first hour after administration) is reported as “Abfall bei allen Frequenzen” and the “Veränderungen der elektrischen Gehirnaktivität” value ([1]; i.p. single dose, compared with saline (0,9 % NaCl-Lösung), all brain areas, all frequencies) is reported as “statistisch signifikantes Niveau im Vergleich zu Salzlösung”. The “Veränderungen der EEG-Frequenzen” value ([1]; next (second) hour after administration) was “im Hippokampus und Striatum Theta- und Alpha2-Wellen nicht mehr so stark vermindert”, the “Amplitude der Populationsspikes” value ([2]; Tiaprid added to superfusion fluid, 2 concentrations, rat hippocampus slice, 35°C, N = 6 slices) was “konzentrationsabhängig zu einer deutlichen Abnahme der Amplitude der Populationsspikes” and the Langzeitpotenzierung ([2]; rat hippocampus slice in vitro, tetanic stimulus) was “Unterdrückung der "Langzeitpotenzierung"”. For the same compound, the Rezeptor-Bindungsprofil (D2/D3 Dopaminrezeptoren) was “selektive Blockade von D2/D3 Dopaminrezeptoren”.
